Data reported in US9908853B2, “Inhibitors of peptidyl arginine deiminase (PAD) enzymes and uses thereof” (University Health Network, priority 2012, dated 2018).
Where two headings read alike, the source gives them in different places.

Assays:
[1] = system: MOG-EAE model; conditions: cited from earlier work
[2] = system: ND4 mouse; conditions: cited from earlier work
[3] = system: PAD enzyme activity (i.e. PAD2 and PAD4); conditions: after addition of 2CA to human brain extracts; cited from earlier work
[4] = target: T1, human PAD1 (Homo sapiens, UniProt Q9ULC6); assay: Inhibition of PAD1 enzyme activity (BAEE substrate, colorimetric, 530 nm); assay type: biochemical; conditions: for Ki: Table 2, read-out: PAD Ki ± SE (μM), PAD1
T1 sequence (Q9ULC6 1-663): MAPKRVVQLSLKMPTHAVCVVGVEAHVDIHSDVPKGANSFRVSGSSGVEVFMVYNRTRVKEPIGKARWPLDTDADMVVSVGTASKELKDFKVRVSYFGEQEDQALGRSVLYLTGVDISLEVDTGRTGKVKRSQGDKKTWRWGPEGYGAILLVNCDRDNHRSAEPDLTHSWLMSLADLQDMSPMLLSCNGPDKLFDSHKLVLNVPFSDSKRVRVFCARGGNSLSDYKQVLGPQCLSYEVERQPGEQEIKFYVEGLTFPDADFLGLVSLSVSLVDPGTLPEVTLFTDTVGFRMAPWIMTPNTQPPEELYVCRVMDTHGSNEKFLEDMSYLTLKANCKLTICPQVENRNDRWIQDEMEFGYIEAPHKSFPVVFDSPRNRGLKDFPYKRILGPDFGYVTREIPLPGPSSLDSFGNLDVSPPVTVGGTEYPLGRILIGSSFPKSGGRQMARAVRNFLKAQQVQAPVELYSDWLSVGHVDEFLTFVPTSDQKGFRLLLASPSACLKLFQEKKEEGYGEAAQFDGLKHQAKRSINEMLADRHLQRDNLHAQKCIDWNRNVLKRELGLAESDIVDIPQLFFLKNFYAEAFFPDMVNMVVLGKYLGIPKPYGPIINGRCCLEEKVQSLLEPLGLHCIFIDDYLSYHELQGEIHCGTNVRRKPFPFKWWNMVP
Experimental: Control reaction contained no inhibitor. Enzyme was added to initiate the reaction. The reaction samples were incubated at 37° C. for 30 min. Color reagent was added and the samples were boiled for 15 min. Samples were cooled on ice, further processed, and the absorbance was measured at 530 nm. Remaining activity was calculated as a percentage of the uninhibited samples.

[5] = target: rabbit PAD2 (Oryctolagus cuniculus, UniProt G1T837); assay: Inhibition of PAD2 enzyme activity; assay type: biochemical; conditions: for IC50: rabbit PAD2, Table 1
Chain of rabbit PAD2 (G1T837 1-665): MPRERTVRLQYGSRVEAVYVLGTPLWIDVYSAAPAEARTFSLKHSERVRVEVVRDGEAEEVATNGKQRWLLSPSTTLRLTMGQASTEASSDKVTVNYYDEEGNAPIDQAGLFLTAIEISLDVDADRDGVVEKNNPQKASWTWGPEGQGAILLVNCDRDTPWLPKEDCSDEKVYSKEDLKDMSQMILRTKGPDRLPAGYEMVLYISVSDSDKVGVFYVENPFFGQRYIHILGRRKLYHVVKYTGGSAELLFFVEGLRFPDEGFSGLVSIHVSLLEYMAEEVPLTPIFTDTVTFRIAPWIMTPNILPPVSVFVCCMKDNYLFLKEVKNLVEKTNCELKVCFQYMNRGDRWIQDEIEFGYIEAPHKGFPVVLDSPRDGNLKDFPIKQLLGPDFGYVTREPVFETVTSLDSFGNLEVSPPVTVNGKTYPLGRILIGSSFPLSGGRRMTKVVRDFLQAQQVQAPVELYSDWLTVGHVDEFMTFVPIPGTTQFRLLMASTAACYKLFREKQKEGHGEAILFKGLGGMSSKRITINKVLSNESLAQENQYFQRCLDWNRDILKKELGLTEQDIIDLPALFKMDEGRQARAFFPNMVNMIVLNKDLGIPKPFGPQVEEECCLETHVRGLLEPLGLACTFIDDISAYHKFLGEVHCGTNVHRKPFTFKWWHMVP

[6] = system: MOG-EAE mouse model; assay: MOG-EAE mouse model, compound of Formula (Ia); assay type: in vivo, C57BL/6 mice
Experimental: On day 8 after the induction of EAE, mice received 2 mg of the compound of Formula ([…].) every other day until day 23. […] Mice were sacrificed on day 24 (i.e. after 2 weeks of treatment) and anti-CD3 staining on spinal cord and brain samples was undertaken.

[7] = target: human PAD4 (Homo sapiens, UniProt Q9UM07); assay: Inhibition of PAD4 enzyme activity (BAEE substrate, colorimetric, 530 nm); assay type: biochemical
Chain of human PAD4 (Q9UM07 whole entry): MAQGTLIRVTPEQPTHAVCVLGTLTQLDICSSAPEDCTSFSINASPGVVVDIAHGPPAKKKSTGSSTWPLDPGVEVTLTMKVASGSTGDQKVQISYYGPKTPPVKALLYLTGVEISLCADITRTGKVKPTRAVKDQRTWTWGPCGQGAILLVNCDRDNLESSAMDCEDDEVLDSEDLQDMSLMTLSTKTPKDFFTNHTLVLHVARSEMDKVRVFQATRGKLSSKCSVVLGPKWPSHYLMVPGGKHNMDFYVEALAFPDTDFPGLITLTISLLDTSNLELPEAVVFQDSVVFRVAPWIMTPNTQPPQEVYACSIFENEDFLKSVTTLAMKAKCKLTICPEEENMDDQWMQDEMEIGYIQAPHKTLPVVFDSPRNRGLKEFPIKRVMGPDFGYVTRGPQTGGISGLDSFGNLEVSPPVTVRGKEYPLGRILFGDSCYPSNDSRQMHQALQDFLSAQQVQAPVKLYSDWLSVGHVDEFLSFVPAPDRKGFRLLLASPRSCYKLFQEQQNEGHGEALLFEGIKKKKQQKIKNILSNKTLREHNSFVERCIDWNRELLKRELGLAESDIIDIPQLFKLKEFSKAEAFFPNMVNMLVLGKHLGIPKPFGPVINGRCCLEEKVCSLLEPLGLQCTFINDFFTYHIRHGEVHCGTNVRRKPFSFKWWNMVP

[8] = system: mice; assay: Mouse toxicity studies; assay type: in vivo
[9] = In vitro cellular toxicity to CHO cells; assay type: cell-based; conditions: Chinese hamster, read-out: CHO cells IC50 ± SE
[10] = Example 8, read-out: equilibrium inhibition constant Ki against PAD2
[11] = Table 2, read-out: PAD Ki ± SE (μM), PAD4

For `N=C(N)CCl` [Compound 2CA, 2-chloroacetamidine], the “survival by day 30” value ([1]; 5 mg/kg i.p. every other day starting day 9) is given as ~50%, the “PAD activity in brain white matter” value ([1]; EAE mice) is given as “effectively attenuated” and the “PAD activity in spinal cord” value ([1]; EAE mice) is given as “reductions to normal levels”. The relapse ([1]; treated group) was “No relapse”, the disease lethality ([1]; treatment started before immunization) was “zero” and the “disease progression in ND4 mice, treatment after early onset” value ([2]; 5 mg/kg i.p. every other day, from 3.5 months up to 6 months of age) was “did not show disease progression”. For the same molecule, the “disease in ND4 mice, treatment before onset” value ([2]; 5 mg/kg i.p. every other day, started at 2 months of age) was “essentially prevented the disease”, the “PAD activity in brain” value ([2]; ND4 mice, right after cessation of treatment at 6 months) was “attenuated” and the “deaths in the treatment groups” value ([2]; ND4 mice, until 6 months of age) was “none died”. The “G-ratio (axon diameter/fiber diameter), optic nerve” value ([2]; treated ND4 mice, healthy littermates 0.74+0.13, ND4 0.96+0.3) was 0.9+0.15 and the “PAD activity in NAWM extracts” value [3] was “declined”.

`CC1(C)NC(=O)N(CN2CCNCC2)C1=O` [Formula (Ia)] showed an IC50 ([4]; Table 1) of 763 µM, a Ki [5] of 0.93 µM and a clinical scores ([6]; 2 mg b.i.d. i.p. every other day, day 8 to day 23, control group higher than 2) of ~1. The “CD3 markers in brain” value ([6]; anti-CD3 staining, sacrificed day 24, untreated 4.8±0.19) was 3.8±0.23 /mm^2, the “PAD activity in treated brain samples” value ([6]; sacrificed day 24) was “much reduced” and the IC50 [7] was 48.3 ± 7.4 µM. For the same molecule, the Ki [7] was 7.4 µM, the IC50 ([7]; read-out: IC50 (μM), PAD4, human PAD4, Table 1, varies with salt form and batch of the enzyme) was ≤ 3820 µM and the inhibition at 30 µM ([7]; read-out: Inhibition of the enzyme activity) was 78%. For the same molecule, the general toxicity ([8]; 10 mg/mouse for 5 days) was “no general toxicity” and the general toxicity ([8]; single 20 mg/mouse dose) was “no general toxicity”.

With `CCOC(=O)CC1(C)NC(=O)N(CN2CCNCC2)C1=O` (centres unmarked) [Formula (Ib), Ethyl [4-methyl-2,5-dioxo-1-(piperazin-1-ylmethyl)imidazolidin-4-yl]acetate] the Ki [5, 10] was 0.46 µM, the IC50 [5] was 12.3 ± 4.8 µM and the IC50 ([7]; human PAD4, Table 1, varies with salt form and batch of the enzyme, read-out: IC50 (μM), PAD4) was 36 ± 18 µM.

`CC(C)(C)OC(=O)CC1(C)NC(=O)N(CN2CCNCC2)C1=O` (centres unmarked) [Formula (Ic), tert-Butyl-[4-methyl-2,5-dioxo-1-(piperazin-1-ylmethyl)imidazolidin-4-yl]acetate] showed a Ki [5, 10] of 0.65 µM and an IC50 [5] of 16.8 ± 7 µM.

With `CN1CCN(CN2C(=O)NC(C)(C)C2=O)CC1` [I(e)] the Ki [4] was 115 ± 5.5 µM, the IC50 [9] was 143 ± 4 µM and the Ki [7, 11] was 45.6 ± 9 µM.

For `CC1(C)NC(=O)N(CCn2ccnc2)C1=O` [I(g)], the Ki [4] was 110 ± 4 µM, the IC50 [9] was 1990 ± 823 µM and the Ki [7, 11] was 4 ± 1.7 µM.

With `CC1(C)NC(=O)N(CCNCC(N)=O)C1=O` [I(h)] the Ki [4] was 33.6 ± 2.6 µM, the “Inhibition of PAD4, in words” value [7] was “good activity” and the Ki [7, 11] was 21.8 ± 7.1 µM.

With `CC1(C)NC(=O)N(CCN)C1=O` [I(i)] the Ki [4] was 117 ± 41.1 µM, the IC50 [9] was 5840 ± 2370 µM and the Ki [7, 11] was 317 ± 32.8 µM.

For `CC1(C)NC(=O)N(CCNCCN)C1=O` [I(j)], the Ki [4] was 55.5 ± 12.3 µM, the IC50 [9] was 2690 ± 175 µM and the Ki [7, 11] was 52 ± 34.1 µM.

For `CC1(C)NC(=O)N(CCCN)C1=O` [I(k)], the Ki [4] was 105 ± 22.1 µM and the Ki [7, 11] was 384 ± 41 µM.

With `CC1(C)NC(=O)N(CCCNCCN)C1=O` [I(l)] the Ki [4] was 42.9 ± 5 µM, the IC50 [9] was 16700 ± 31600 µM and the Ki [7, 11] was 123 ± 14.7 µM.
